Measurements taken from patent US20120028918A1, “PHARMACEUTICAL COMPOSITIONS AND METHODS OF MAKING SAME” (GLAXO WELLCOME MANUFACTURING PTE LTD., priority 2010, published 2012).

Tests used:
[1] = target: T1, Akt2 (Homo sapiens, UniProt P31751); assay: Akt kinase assay (HTRF, GSK-derived biotinylated peptide substrate); format: biochemical; conditions: activated Akt2, HTRF, 120 minute preincubation; read-out: IC50 against Akt2
T1 construct: a middle T tag was added to the 5′ end of the full length Akt2 using the PCR primer; middle T tag (EYMPME) (N); biotin tag (from pS2neo vector); made in house; host or cells: Drosophila S2 cells
Experimental: (§1) Activated Akt isoforms were assayed utilizing a GSK-derived biotinylated peptide substrate. The extent of peptide phosphorylation was determined by Homogeneous Time Resolved Fluorescence (HTRF) using a europium-coupled monoclonal antibody specific for the phosphopeptide in combination with a streptavidin-linked allophycocyanin (SA-APC) fluorophore which will bind to the biotin moiety on the peptide. When the europium and APC are in proximity (i.e. bound to the same phosphopeptide molecule), a non-radiative energy transfer takes place from the […] to the APC, followed by emission of light from APC at 665 nm.
(§2) Materials required for the assay: • A. 100 nM activated Akt1 or 225 nM activated Akt2 • B. 10×R for AKT assay buffer (500 mM Hepes pH 7.5, 1% PEG m.w. 15000-20000, 1 mM EDTA, 1 mM EGTA, 1% BSA, 20 mM β glycerol phosphate) • C. 1 M KCl • D. 50% glycerol • E. 250 mM MgCl2 • F. 50 mM ATP pH 7.0 • G. 0.2 M DTT • H. 1 mM GSK3α biotinylated peptide (SynPep biotin-[…]-COOH) • I. Stop Buffer: 40 mM EDTA (pH8.4) • J. 8.5 uM SA-APC (PerkinElmer #CR130-100, lot No. N01001K-AAG16) • K. 4.9 uM Eu-W 1024 labeled phos-GSK3 monoclonal antibody (PerkinElmer #CUSM63178) • L. Detection Reagent: 15 mM Tris-HCl ([…]), 0.1% Tween20, 250 nM SA-APC (PerkinElmer #CR130-100, lot No. N01001K-AAG16), 0.735 nM Eu-W1024 labeled phos-GSK3 monoclonal antibody (PerkinElmer #CUSM63178) The reaction was assembled using the following protocol: • A. Add 0.5 uL inhibitor to test wells or 0.5 uL DMSO to no drug control wells. • B. Prepare Enzyme diluent: 18000 uL 10×R for AKT assay buffer, 9600 uL 250 mM MgCl2, 12000 uL 1 M KCl, 18000 uL 50% Glycerol, 900 uL 0.2 M DTT, 121500 uL MilliQ water. • C. Prepare Enzyme mixture (E-Mix): To […] Enzyme diluent, added 4.3 uL of a 100 nM activated AKT1, 1.9 uL of a 225 nM stock of activated Akt2 so concentration AKT1 and Akt2 were 6 pM. • D. 10 uL of Stop Buffer was added manually to wells acting as Background control wells. Initiate preincubation reactions by adding 15 uL of E-Mix using Multidrop 384. Spin down assay plates after the addition of E-Mix. • E. Prepare ATP/Peptide working solution (S-Mix): 10000 uL 10×R for AKT assay buffer, 5000 uL 50% glycerol, 250 uL 0.2M DTT, 600 uL 50 mM ATP, 100 uL 1 mM GSK3 peptide, 34050 uL MilliQ water. • F. To wells where preincubation is being conducted, after the 120 minute preincubation, initiate kinase reactions by adding 5 uL S-Mix using FRD. […] Let kinase assays run for 60 minutes at 25° C. • G. Stop kinase reactions by adding 10 uL Stop Buffer, using Multidrop 384, to wells other than background wells. • H. 10 uL of Detection Reagent was added using FRD and stopped assays were stored at room temperature for more than 2 hours. • I. The plates were read on PHERAstar.

[2] = target: T2, Akt1 (Homo sapiens, UniProt P31749); assay: as above; format: biochemical; conditions: activated Akt1, HTRF, 120 minute preincubation; read-out: IC50 against Akt1
T2 construct: a middle T tag was added to the 5′ end of the full length Akt1 gene; middle T tag (EYMPME) (N); biotin tag (from pS2neo vector); made in house; host or cells: Drosophila S2 cells
Experimental: as §1, §2

T2 sequence (P31749 whole entry): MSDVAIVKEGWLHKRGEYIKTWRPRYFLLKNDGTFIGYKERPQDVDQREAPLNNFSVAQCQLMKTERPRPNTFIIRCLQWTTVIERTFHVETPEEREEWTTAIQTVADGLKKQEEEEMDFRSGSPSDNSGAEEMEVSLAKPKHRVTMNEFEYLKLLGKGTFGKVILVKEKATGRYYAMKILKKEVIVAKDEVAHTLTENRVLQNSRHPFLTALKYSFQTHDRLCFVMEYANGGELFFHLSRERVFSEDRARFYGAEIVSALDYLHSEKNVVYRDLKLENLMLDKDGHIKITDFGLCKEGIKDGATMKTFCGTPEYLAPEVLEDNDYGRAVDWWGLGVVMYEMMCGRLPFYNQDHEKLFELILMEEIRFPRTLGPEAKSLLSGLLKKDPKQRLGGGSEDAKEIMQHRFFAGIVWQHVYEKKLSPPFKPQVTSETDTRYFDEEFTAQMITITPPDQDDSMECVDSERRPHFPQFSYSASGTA
T1 sequence (P31751 whole entry): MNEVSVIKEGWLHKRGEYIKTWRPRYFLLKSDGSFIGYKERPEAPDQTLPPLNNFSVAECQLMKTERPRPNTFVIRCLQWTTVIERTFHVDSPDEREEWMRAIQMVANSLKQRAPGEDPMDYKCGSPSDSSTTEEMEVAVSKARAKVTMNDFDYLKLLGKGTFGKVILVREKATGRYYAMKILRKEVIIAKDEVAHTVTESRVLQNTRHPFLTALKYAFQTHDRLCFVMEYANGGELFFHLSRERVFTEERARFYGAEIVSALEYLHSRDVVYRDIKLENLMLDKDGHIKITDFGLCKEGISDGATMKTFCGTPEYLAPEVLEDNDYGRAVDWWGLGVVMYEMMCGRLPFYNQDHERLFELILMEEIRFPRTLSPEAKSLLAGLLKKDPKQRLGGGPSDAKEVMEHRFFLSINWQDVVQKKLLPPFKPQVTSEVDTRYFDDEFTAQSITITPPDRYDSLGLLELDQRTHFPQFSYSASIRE

Row | SMILES | IC50 [1] | IC50 [2]
1 | COc1ccc(-c2nc(-c3ccc([C@]4(N)C[C@](C)(O)C4)cc3)c(-c3ccccc3)s2)cn1 [Compound 2-1, (1R,3R)-3-amino-3-(4-(2-(6-methoxypyridin-3-yl)-5-phenylthiazol-4-yl)phenyl)-1-methylcyclobutanol] | 26 nM | 91 nM
2 | COc1cncc(-c2nc(-c3ccc([C@]4(N)C[C@](C)(O)C4)cc3)c(-c3ccccc3)s2)c1 [Compound 3-1, (1R,3R)-3-amino-3-(4-(2-(5-methoxypyridin-3-yl)-5-phenylthiazol-4-yl)phenyl)-1-methylcyclobutanol] | 25 nM | 40 nM
